2 compounds from patent US6191273A, “Substituted cyclic compounds and mixtures comprising same” (Isis Pharmaceuticals, Inc., priority 1998, dated 2001) can be followed below.

Assay [1] relates to E. coli imp-. Nature of the assay: E. coli imp- bacterial growth assay (Tier I antimicrobial). The format is cell-based. The conditions noted are these: Escherichia coli, read-out: inhibition in the E. coli procedure. The procedure: The strain E. coli imp- obtained from Spencer Benson (Sampson, B. A., Misra, R. & Benson, S. A., Genetics, 1989, 122, 491-501, Identification and characterization of a new gene of Escherichia coli K-12 involved in outer membrane permeability) is used in this bacterial growth assay. To initiate the exponential phase of bacterial growth prior to the assay, a sample of bacteria is grown for 6 hours in Mueller Hinton II Broth (BBL 12322) at 37° C. then re-inoculated into fresh media and grown overnight at 37° C. The bacterial cells are collected by centrifugation for 10 minutes at 3200 rpm, diluted and absorbance read at 595 nm. Bacteria diluted in 2× Mueller Hinton II Broth (75 μL) are added to the compound mixtures (75μL) for a total volume of 150 μL. The assays are performed in 96-well microplates with approximately 1×10^4 colony forming units (CFU) per well. The plates are incubated at 37° C. and growth monitored over a 24 hour period by measuring the optical density at 595 nm using a BioRad model 3550 UV microplate reader. The percentage of growth relative to a well containing no compound is determined. Ampicillin and tetracycline antibiotic controls are concurrently tested in each screening assay.
Compounds are assayed in duplicate at a single dose. […]

Assay [2] has as its system S. pyogenes [American Type Culture Collection (ATCC) # 14289]. Nature of the assay: Streptococcus pyogenes bacterial growth assay (Tier I antimicrobial). The format is cell-based. The conditions noted are these: read-out: inhibition in the S. pyogenes procedure. The procedure:
S. pyogenes [American Type Culture Collection (ATCC) # 14289] is used in this bacterial growth assay. To initiate the exponential phase of bacterial growth prior to the assay, a sample of bacteria is grown for 6 hours in Todd Hewitt Broth (Difco 0492-17-6) at 37° C. then re-inoculated into fresh media and grown overnight at 37° C. The bacterial cells are collected by centrifugation for 10 minutes at 3200 rpm, diluted and absorbance read at 595 nm. Bacteria diluted in 2× Todd-Hewitt Broth (75 μL) are added to the compound mixtures (75 μL) for a total volume of 150 μL. The assays are performed in 96-well microplates with approximately 1×10^4 colony forming units (CFU) per well. The plates are incubated at 37° C. and growth monitored over a 24 hour period by measuring the optical density at 595 nm using a BioRad model 3550 UV microplate reader. The percentage of growth relative to a well containing no test compound or library is determined. Ampicillin and tetracycline antibiotic controls are concurrently tested in each screening assay.
Compounds are assayed in duplicate at a single dose. Compounds which show inhibitory activity are re-tested in duplicate at multiple doses to determine minimum inhibitory concentration (MIC).

SMILES strings stand for the structures.

For `NC(=O)CN(Cc1cccc(C(F)(F)F)c1)Cc1cccc(CN(CCNCCCO)Cc2cccc(C(F)(F)F)c2)n1` [Example 66], the inhibition at 100 µM turned out to be 87% in assay [1] and 95% in assay [2].

For `N=C(N)NCc1cccc(CN(CCNCCCO)Cc2cccc(C(F)(F)F)c2)n1` [Example 71], the inhibition at 100 µM in assay [2] amounted to 95%.

Usually inhibition stands for the share of the control response that was lost under treatment.
